Broadly, the melting point is the temperature, or range, at which the solid turns liquid. What is called IC50 is the concentration needed to halve the response being measured.

Data on three compounds can be found in patent publication US20050090504A1, “Piperidinyl and piperazinyl compounds substituted with bicyclo-heterocyclylalkyl groups useful as CCR3 receptor antagonists” (priority 2003, published 2005).

One data set deals with T1, CCR-3 receptor (Homo sapiens, UniProt P51677).
T1 construct: expressed in transfected cells; host or cells: L1.2 (murine pre-beta lymphoma line)
T1 sequence (P51677 1-355): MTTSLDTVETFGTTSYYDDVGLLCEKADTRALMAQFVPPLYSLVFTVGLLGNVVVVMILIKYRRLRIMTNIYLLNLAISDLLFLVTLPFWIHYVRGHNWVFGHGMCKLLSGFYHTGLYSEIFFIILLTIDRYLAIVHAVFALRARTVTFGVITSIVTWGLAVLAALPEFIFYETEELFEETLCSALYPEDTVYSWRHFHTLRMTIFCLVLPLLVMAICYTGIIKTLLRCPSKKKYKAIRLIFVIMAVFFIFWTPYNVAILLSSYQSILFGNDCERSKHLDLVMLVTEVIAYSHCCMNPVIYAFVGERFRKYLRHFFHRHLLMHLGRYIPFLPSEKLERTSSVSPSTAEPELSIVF
Briefly: CCR-3 Receptor Binding Assay, inhibition of 125I eotaxin binding to CCR-3 L1.2 transfectant cells. To be noted: CCR-3 L1.2 transfected cells, 1 hour at rt., read-out: CCR3 Binding IC50. How it is done: The CCR-3 antagonistic activity of the compounds of the invention was determined by their ability to inhibit the binding of ^125 I eotaxin to CCR-3 L1.2 transfectant cells (see Ponath, P. D. et al., J. Exp. Med., Vol. 183, 2437-2448, (1996)).
The assay was performed in Costar 96-well polypropylene round bottom plates. Test compounds were dissolved in DMSO and then diluted with binding buffer (50 mM HEPES, 1 mM CaCl2, 5 mM MgCl2, 0.5% bovine serum albumin (BSA), 0.02% sodium azide, pH 7.24) such that the final DMSO concentration was 2%. 25 μl of the test solution or only buffer with DMSO (control samples) was added to each well, followed by the addition of 25 μl of ^125I-eotaxin ([…]) (NEX314, New England Nuclear, Boston, Mass.) and 1.5×10^5 of the CCR-3 L1.2 transfected cells in 25 μl binding buffer. The final reaction volume was 75 μl.
After incubating the reaction mixture for 1 hour at rt., the reaction was terminated by filtering the reaction mixture through polyethylenimine treated Packard Unifilter GF/C filter plate (Packard, Chicago, Ill.). The filters were washed four times with ice cold wash buffer containing 10 mm HEPES and 0.5M sodium chloride (pH 7.2) and dried at 65° C. for approximately 10 minutes. 25 μl/well of Microscint-20® scintillation fluid (Packard) was added and the radioactivity retained on the filters was determined by using the Packard TopCount®. […]

In turn, `Cc1ccc2oc(NC(CN3CCN(Cc4ccc(Cl)c(Cl)c4)CC3)C(C)C)nc2c1` (stereo not drawn) [Example 9, {1-[4-(3,4-Dichloro-benzyl)-piperazin-1-ylmethyl]-2-methyl-propyl}-(5-methyl-benzooxazol-2-yl)-amine] had a melting point of 155.3 to 156.9 °C.

Turning to `CC(C)(C)[C@H](CN1CCC(Cc2ccc(Cl)c(Cl)c2)CC1)Nc1nc2ccccc2o1` [Example 18, 1-[(R)-2-(benzooxazol-2-ylamino)-3,3-dimethyl-butyl]-4-(3,4-dichloro-benzyl)-piperidinium; chloride], at CCR-3 receptor, the half-inhibitory concentration (IC50) stood at 150 nM. The same measure, in the same setting: the same measure for `CC(C)C(CN1CCN(Cc2ccc(Cl)c(Cl)c2)CC1)Nc1nc2ccccc2o1` (stereo not drawn) [Example 28, 1-[2-(Benzooxazol-2-ylamino)-3-methyl-butyl]-4-(3,4-dichloro-benzyl)-piperazin-1-ium; chloride]: 970 nM.
